# Test results published in publication PMC10349806 (Nature Communications, 2023).
# “And” between values parts separate entries of the source, which are not always exact repeats. Equal values may be shown once.
# Target: PfCRT^Dd2 (Plasmodium falciparum, UniProt Q9N623, A220S/I356T/K76T/M74I/N326S/N75E/Q271E/R371I)
# Assay: Drug uptake assay, X. laevis oocytes expressing PfCRT^Dd2
# Format: cell-based
# Conditions: for Kd: KS^CQ; for Vmax: CQ vs protons
# Protocol: Oocytes were obtained as described previously. Briefly, adult (>2 years old) female X. laevis frogs (NASCO) were anesthetized in a cooled solution of ethyl 3-amino benzoate methanesulfonate (0.1%, w/v), followed by a surgical removal of parts of the ovary. The ovary lobes were carefully dissected and small pieces of oocytes were incubated in Ca^2+-free ND96 buffer (96 mM NaCl, 2 mM KCl, 1 mM MgCl2 buffered with 5 mM HEPES/NaOH, pH 7.5) supplemented with collagenase D (0.1%, w/v; Roche), BSA (0.5%, w/v), and 9 mm Na2HPO4 at 18 °C for 14-16 h while gentle shaking. After incubation, the oocytes were carefully washed several times with ND96 buffer (96 mM NaCl, 2 mM KCl, 1.8 mM CaCl2, 1 mM MgCl2 buffered with 5 mM HEPES/NaOH, pH 7.5) supplemented with 100 mg l^−1 gentamycin). Defolliculated and healthy-looking stage V-VI oocytes were manually selected for RNA microinjection. The RNA was generated as following: The codon-optimized sequences of PfCRT variants were cloned into the pSP64T expression vector. After vector linearization using the restriction endonucleases BamHI or SalI (New England Biolabs), transcription was performed using the in vitro SP6 mMessage mMachine Kit (Ambion)[34]. The obtained RNA was kept at −80 °C and diluted with nuclease-free water to a concentration of 0.6 μg μl^−1. Precision-bore glass capillary tubes (3.5-inch glass capillaries; Drummond Scientific Co.) were pulled on a vertical puller (P-87 Flaming/Brown micropipette puller, Sutter Instrument Co.), graduated, and placed on a microinjector (Nanoject II Auto-Nanoliter Injector, Drummond Scientific Co.). 50 nl of nuclease-free water alone (control oocytes) or 50 nl of 0.6 μg μl^−1 RNA were injected under stereomicroscopic control. Injected oocytes were incubated for 46–72 h at 18 °C with twice-daily buffer changes before usage in experiments.
# Drug uptake assays were performed as described previously[21],[22],[24],[34]. […] The direction of radio-labeled drug transport is here from the mostly acidic extracellular solution (pH 4.5 or 6.0, as indicated) into the oocyte cytosol (pH ∼ 7.2), which corresponds to the efflux of drug from the acidic digestive vacuole (pH 5.2) into the parasite cytoplasm (pH 7.2). The topology of PfCRT in the oolemma is such that both the N- and C-terminus face the extracellular milieu[3],[22]. In the parasite, the N- and C-terminus face the lumen of the digestive vacuole. […] For determination of the amount of drug uptake for each oocyte, the reaction medium was removed and the oocytes were washed three times with 2 ml of ice-cold ND96 buffer. Each oocyte was individually transferred to a scintillation vial containing 5% sodium dodecyl sulfate (200 μl) for lysis. […] Oocytes that were injected with water instead of RNA were analyzed in parallel, representing the uptake of a drug by diffusion and/or endogenous permeation pathways. The resulting value represents the “background“ level of drug accumulation in oocytes (in-depth discussion in[22]). The specific PfCRT-mediated uptake was determined by subtracting the corresponding background value measured in water-injected oocytes from that of PfCRT-expressing oocytes. In all cases, at least three separate experiments were performed on oocytes from different frogs (biological replicate), and for each condition in an experiment, measurements were made from 10 oocytes per treatment. For pH 5.5, 6.0, and 6.5, ND96 was buffered with 5 mM MES/Tris base. For pH 4.5, 5 mM Homo-Pipes was used as a buffer and 5 mM HEPES for uptake at pH 7.0.
# [1] = mixed (partial) model, mean ± SEM
# [2] = PfCRTDd2, 50 µM CQ, 1 h, mean ± SEM
# PfCRT^Dd2, sequence (Q9N623 whole entry A220S/I356T/K76T/M74I/N326S/N75E/Q271E/R371I): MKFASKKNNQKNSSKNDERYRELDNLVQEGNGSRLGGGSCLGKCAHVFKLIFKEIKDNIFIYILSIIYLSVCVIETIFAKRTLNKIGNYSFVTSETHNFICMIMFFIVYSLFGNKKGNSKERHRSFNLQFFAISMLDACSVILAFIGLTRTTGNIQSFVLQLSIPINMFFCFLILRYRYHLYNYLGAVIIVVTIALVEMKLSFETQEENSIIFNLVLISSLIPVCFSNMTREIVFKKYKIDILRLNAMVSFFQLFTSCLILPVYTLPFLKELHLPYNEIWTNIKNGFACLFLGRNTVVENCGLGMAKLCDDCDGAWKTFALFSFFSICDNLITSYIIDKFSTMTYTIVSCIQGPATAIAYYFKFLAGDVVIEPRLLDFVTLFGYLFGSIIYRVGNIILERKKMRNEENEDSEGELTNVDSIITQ
smiles,measurement,setting,value
"CCN(CC)CCCC(C)Nc1ccnc2cc(Cl)ccc12 (centres unmarked) [CQ, chloroquine]",v-1 pH 6.0,"500 µM CQ, Lineweaver-Burk",0.05 (pmol oocyte-1 h-1)-1
same,inflection point in the weakly acidic pH range,CQ transport vs pH,~ 5.2 pH
same,PfCRTDd2 transport activity pH 4.5,"CQ uptake, X. laevis oocytes expressing PfCRTDd2, pH 4.5, individual replicates (Fig 6b)",0.81 pmol oocyte-1 h-1 and 1.13 pmol oocyte-1 h-1 and 0.91 pmol oocyte-1 h-1 and 1.51 pmol oocyte-1 h-1 and 1.64 pmol oocyte-1 h-1 and 1.57 pmol oocyte-1 h-1
same,PfCRTDd2 transport activity pH 4.5,"CQ uptake, X. laevis oocytes expressing PfCRTDd2, pH 4.5, individual replicates (source data Fig 1d left)",0.89 pmol oocyte-1 h-1 and 0.81 pmol oocyte-1 h-1 and 1.13 pmol oocyte-1 h-1 and 0.91 pmol oocyte-1 h-1 and 1.51 pmol oocyte-1 h-1 and 1.64 pmol oocyte-1 h-1
same,PfCRTDd2 transport activity pH 6.0,"CQ uptake, X. laevis oocytes expressing PfCRTDd2, pH 6.0, individual replicates (Fig 6b)",3.69 pmol oocyte-1 h-1 and 3.79 pmol oocyte-1 h-1 and 3.00 pmol oocyte-1 h-1 and 3.40 pmol oocyte-1 h-1 and 3.90 pmol oocyte-1 h-1 and 6.11 pmol oocyte-1 h-1 and 4.28 pmol oocyte-1 h-1 and 5.58 pmol oocyte-1 h-1 and 6.47 pmol oocyte-1 h-1 and 3.37 pmol oocyte-1 h-1 and 3.28 pmol oocyte-1 h-1 and 4.53 pmol oocyte-1 h-1 and 3.68 pmol oocyte-1 h-1 and 5.95 pmol oocyte-1 h-1 and 11.50 pmol oocyte-1 h-1 and 6.00 pmol oocyte-1 h-1 and 4.23 pmol oocyte-1 h-1 and 6.19 pmol oocyte-1 h-1 and 4.62 pmol oocyte-1 h-1 and 6.53 pmol oocyte-1 h-1
same,PfCRTDd2 transport activity pH 6.0,"CQ uptake, X. laevis oocytes expressing PfCRTDd2, pH 6.0, individual replicates (source data Fig 1d left)",5.87 pmol oocyte-1 h-1 and 4.37 pmol oocyte-1 h-1 and 4.87 pmol oocyte-1 h-1 and 4.94 pmol oocyte-1 h-1 and 5.55 pmol oocyte-1 h-1 and 3.80 pmol oocyte-1 h-1 and 3.69 pmol oocyte-1 h-1 and 3.79 pmol oocyte-1 h-1 and 3.00 pmol oocyte-1 h-1 and 3.40 pmol oocyte-1 h-1 and 3.90 pmol oocyte-1 h-1 and 6.11 pmol oocyte-1 h-1 and 4.28 pmol oocyte-1 h-1 and 5.58 pmol oocyte-1 h-1 and 6.47 pmol oocyte-1 h-1 and 3.37 pmol oocyte-1 h-1 and 3.28 pmol oocyte-1 h-1 and 4.53 pmol oocyte-1 h-1 and 3.68 pmol oocyte-1 h-1 and 5.95 pmol oocyte-1 h-1
same,PfCRTDd2 transport activity pH 4.5 with preincubation 1 h at pH 4.5,"CQ uptake, independent samples",5.80 pmol oocyte-1 h-1 and 5.85 pmol oocyte-1 h-1 and 2.93 pmol oocyte-1 h-1
same,PfCRTDd2 transport activity pH 4.5 without preincubation,"CQ uptake, independent samples",5.79 pmol oocyte-1 h-1 and 5.26 pmol oocyte-1 h-1 and 2.99 pmol oocyte-1 h-1
same,Kd,[1],320 ± 100 µM
same,Kd,"noncompetitive (partial) model, called KM, mean ± SEM",220 ± 25 µM
same,Activity at pH 4.5,[2],1.20 ± 0.10 pmol h-1 oocyte-1
same,Activity at pH 6.0,[2],5.05 ± 0.23 pmol h-1 oocyte-1
same,R-value,"PfCRTDd2, CQ transport at pH 4.5 / pH 6.0",~ 0.2 and 0.24 ± 0.01
same,Vmax ± SEM,"PfCRT^Dd2, pH 4.5",14 ± 2 pmol h^−1 oocyte ^−1
same,Vmax ± SEM,"PfCRT^Dd2, pH 6.0",32 ± 2 pmol h^−1 oocyte ^−1
same,PfCRTDd2 R-value,"R-value from transport activity at pH 4.5 and pH 6.0, individual replicates (source data Fig 1d left)",0.23 and 0.27 and 0.25
same,PfCRTDd2 R-value,"R-value from transport activity at pH 4.5 and pH 6.0, oocytes expressing PfCRTDd2, source data Fig 1d left",0.25
same,pH of maximal CQ transport activity,"bell-shaped curve, pH 4.5 to 7.0, 50 µM CQ",6.2 ± 0.3 pH
same,"CQ transport activity, oocytes pre-treated 1 h at pH 4.5 vs untreated",in words,no significant differences
same,Vmax,[1],45 ± 9 pmol h^−1 oocyte^−1
same,α,"mixed (partial) model, factor by which KS values change when other substrate is bound",0.53 ± 0.26
same,β,"mixed (partial) model, factor by which Vmax is affected by the inhibitor",0.27 ± 0.06
same,Vmax,"noncompetitive (partial) model, mean ± SEM",40 ± 4 pmol h^−1 oocyte^−1
same,β,"noncompetitive (partial) model, factor by which Vmax is affected by bound proton",0.36 ± 0.02
same,PfCRTDd2 transport activity pH 4.5,"pH 4.5, individual replicates (Fig 6a)",0.82 pmol oocyte-1 h-1 and 2.03 pmol oocyte-1 h-1 and 1.25 pmol oocyte-1 h-1 and 0.75 pmol oocyte-1 h-1 and 1.02 pmol oocyte-1 h-1 and 0.89 pmol oocyte-1 h-1 and 0.81 pmol oocyte-1 h-1 and 1.13 pmol oocyte-1 h-1 and 0.91 pmol oocyte-1 h-1 and 1.51 pmol oocyte-1 h-1 and 1.64 pmol oocyte-1 h-1 and 1.57 pmol oocyte-1 h-1 and 1.05 pmol oocyte-1 h-1 and 1.43 pmol oocyte-1 h-1
same,PfCRTDd2 transport activity pH 4.5,"pH 4.5, individual replicates, Fig 6b",0.82 pmol oocyte-1 h-1 and 2.03 pmol oocyte-1 h-1 and 1.25 pmol oocyte-1 h-1 and 0.75 pmol oocyte-1 h-1 and 1.02 pmol oocyte-1 h-1 and 0.89 pmol oocyte-1 h-1 and 1.05 pmol oocyte-1 h-1 and 1.43 pmol oocyte-1 h-1
same,PfCRTDd2 transport activity pH 4.5,"pH 4.5, oocytes expressing PfCRTDd2, individual replicate values, source data Fig 1d left",1.57 pmol oocyte-1 h-1
same,PfCRTDd2 transport activity pH 4.5,"pH 4.5, single replicates, Fig 1d left",2.03 pmol oocyte-1 h-1 and 1.25 pmol oocyte-1 h-1 and 0.75 pmol oocyte-1 h-1 and 1.02 pmol oocyte-1 h-1 and 1.05 pmol oocyte-1 h-1 and 1.43 pmol oocyte-1 h-1 and 0.82 pmol oocyte-1 h-1
same,PfCRTDd2 R-value,"pH 4.5 vs pH 6.0, Fig 1d left",0.27 and 0.30 and 0.19 and 0.23 and 0.17 and 0.15
same,PfCRTDd2 transport activity pH 6.0,"pH 6.0, individual replicates, Fig 6b",5.64 pmol oocyte-1 h-1 and 4.84 pmol oocyte-1 h-1 and 7.93 pmol oocyte-1 h-1 and 4.17 pmol oocyte-1 h-1 and 7.55 pmol oocyte-1 h-1 and 4.19 pmol oocyte-1 h-1 and 4.00 pmol oocyte-1 h-1 and 4.20 pmol oocyte-1 h-1 and 4.01 pmol oocyte-1 h-1 and 4.51 pmol oocyte-1 h-1 and 5.87 pmol oocyte-1 h-1 and 4.37 pmol oocyte-1 h-1 and 4.87 pmol oocyte-1 h-1 and 4.94 pmol oocyte-1 h-1 and 5.55 pmol oocyte-1 h-1 and 3.80 pmol oocyte-1 h-1 and 4.33 pmol oocyte-1 h-1 and 4.86 pmol oocyte-1 h-1 and 6.59 pmol oocyte-1 h-1 and 6.15 pmol oocyte-1 h-1 and 4.02 pmol oocyte-1 h-1 and 5.29 pmol oocyte-1 h-1 and 5.21 pmol oocyte-1 h-1
same,PfCRTDd2 transport activity pH 6.0,"pH 6.0, oocytes expressing PfCRTDd2, individual replicate values, source data Fig 1d left",11.50 pmol oocyte-1 h-1 and 6.00 pmol oocyte-1 h-1 and 4.23 pmol oocyte-1 h-1 and 6.19 pmol oocyte-1 h-1 and 4.62 pmol oocyte-1 h-1 and 6.53 pmol oocyte-1 h-1
same,PfCRTDd2 transport activity pH 6.0,"pH 6.0, single replicates, Fig 1d left",5.64 pmol oocyte-1 h-1 and 4.84 pmol oocyte-1 h-1 and 7.93 pmol oocyte-1 h-1 and 4.17 pmol oocyte-1 h-1 and 7.55 pmol oocyte-1 h-1 and 4.19 pmol oocyte-1 h-1 and 4.00 pmol oocyte-1 h-1 and 4.20 pmol oocyte-1 h-1 and 4.01 pmol oocyte-1 h-1 and 4.51 pmol oocyte-1 h-1 and 4.33 pmol oocyte-1 h-1 and 4.86 pmol oocyte-1 h-1 and 6.59 pmol oocyte-1 h-1 and 6.15 pmol oocyte-1 h-1 and 4.02 pmol oocyte-1 h-1 and 5.29 pmol oocyte-1 h-1 and 5.21 pmol oocyte-1 h-1
same,PfCRTDd2 R-value,ratio of activity pH 4.5 / pH 6.0,0.15 and 0.27 and 0.30 and 0.19 and 0.23 and 0.17
same,PfCRTDd2 R-value,"ratio of transport activity pH 4.5 to pH 6.0, individual replicates (Fig 6b)",0.27 and 0.25
same,PfCRTDd2 R-value,transport activity pH 4.5 relative to pH 6.0 (Fig 6a),0.15 and 0.27 and 0.30 and 0.19 and 0.23 and 0.25 and 0.17
